Non-standard residues stand in square brackets, D forms with d. Residues, ends and D or L forms follow the SMILES beside them.
Key:
[1] = system: Staphylococcus epidermidis ATCC12228; assay: Anti-infection test of externally-applied agent on skin, viable count; assay type: in vivo, ICR mice; conditions: for viable count, Liver (1:5) / viable count, Skin (1:10) / viable count, Spleen (1:5) / viable count, Whole blood: 0.1 ml morning and evening for 7 days, n = 10; for inhibition of skin infection (in words): externally-applied agent, twice daily for 7 days, Staphylococcus epidermidis
Excerpt: (§1) 1. Experimental Strains: Staphylococcus epidermidis ATCC12228 and Staphylococcus aureus ATCC25923
(§2) There are 50 male ICR mice with the weight of 20±2 g. According to their weight, they are randomly divided into 5 groups of 10 mice: negative infected control group, Bactroban positive control group, 1% concentration cream group, 1‰ concentration cream group and blank ground substance group. Each group is raised in the same plastic case. Their blank parts, heads, necks, backs and tails are marked with picric acid marking method. All the mice are raised with ordinary animal feeds in the ordinary animal houses and they could drink water freely. Alternating of light and dark is conducted every 12 hours.
(§3) There are preparation of 1% concentration, 1‰ concentration, and blank ground substance preparation (supplied by Jiangsu ProteLight Pharmaceutical & Biotechnology Co., LTD.) and Bactroban (supplied by SK&F).
(§4) (1) The bacteria strains which preserved in liquid nitrogen are inoculated to MHB plate and cultured overnight at 37° C.
(§5) (2) The solid strains are inoculated to MHB liquid medium and overnight cultured shakily at the speed of 220 rpm at 37° C.
(§6) (3) The bacterial suspension cultured overnight is diluted to 5×10^6CFU/ml and applied in reserve.
(§7) (4) Skin modeling: Mice's back are sheared and depilated by depilatory paste. After the hair off, they are abraded with 0.3 mm-long sandpaper to bleeding and injected 0.1 ml bacterial suspension with the concentration of 5×10^6CFU/ml subcutaneously.
(§8) (5) Administration: All the groups except the negative infected control group are respectively applied different cream with the dosage of 0.1 ml once respectively in the morning and evening for 7 days.
(§9) (6) After 7 days, the visceral organs, blood and infected skin of mice are collected by aseptic method to count viable bacteria.

[2] = system: Staphylococcus aureus ATCC25923; assay: as above; assay type: in vivo, ICR mice; conditions: for viable count, Liver (1:5) / viable count, Skin (1:10) / viable count, Spleen (1:5) / viable count, Whole blood: 0.1 ml morning and evening for 7 days, n = 10; for inhibition of skin infection (in words): externally-applied agent, twice daily for 7 days, Staphylococcus aureus
Excerpt: as §1, §2, §3, §4, §5, §6, §7, §8, §9

Molecule	viable count, Liver (1:5) ([1]; 1% externally-applied agent)	viable count, Skin (1:10) ([1]; 1% externally-applied agent)	viable count, Spleen (1:5) ([1]; 1% externally-applied agent)	viable count, Whole blood ([1]; 1% externally-applied agent)	viable count, Liver (1:5) ([1]; 1‰ externally-applied agent)	viable count, Skin (1:10) ([1]; 1‰ externally-applied agent)	viable count, Spleen (1:5) ([1]; 1‰ externally-applied agent)	viable count, Whole blood ([1]; 1‰ externally-applied agent)	inhibition of skin infection (in words) [1]	viable count, Liver (1:5) ([2]; 1% externally-applied agent)	viable count, Skin (1:10) ([2]; 1% externally-applied agent)	viable count, Spleen (1:5) ([2]; 1% externally-applied agent)	viable count, Whole blood ([2]; 1% externally-applied agent)	viable count, Liver (1:5) ([2]; 1‰ externally-applied agent)	viable count, Skin (1:10) ([2]; 1‰ externally-applied agent)	viable count, Spleen (1:5) ([2]; 1‰ externally-applied agent)	viable count, Whole blood ([2]; 1‰ externally-applied agent)	inhibition of skin infection (in words) [2]
CC(=O)N[C@H](Cc1ccccc1)C(=O)N[C@H](CCCCN)C(=O)N[C@H](CCCCN)C(=O)N[C@H](CC(C)C)C(=O)N[C@H](CCCCN)C(=O)N[C@H](CCCCN)C(=O)N[C@H](CC(C)C)C(=O)N[C@H](Cc1ccccc1)C(=O)N[C@H](CO)C(=O)N[C@H](CCCCN)C(=O)N[C@H](CC(C)C)C(=O)N[C@H](Cc1c[nH]c2ccccc12)C(=O)N[C@H](CC(N)=O)C(=O)N[C@H](Cc1c[nH]c2ccccc12)C(=O)N[C@H](CCCCN)C(N)=O [PL-18] (Ac-[dF][dK][dK][dL][dK][dK][dL][dF][dS][dK][dL][dW][dN][dW][dK]-NH2)	17 CFU/plate	276 CFU/plate	5 CFU/plate	16 CFU/plate	8 CFU/plate	425 CFU/plate	13 CFU/plate	19 CFU/plate	effective	9 CFU/plate	997 CFU/plate	8 CFU/plate	16 CFU/plate	11 CFU/plate	1051 CFU/plate	15 CFU/plate	12 CFU/plate	effective
Ac-FKKLKKLFSKLWNWK-NH2 [PL-13]	12 CFU/plate	369 CFU/plate	5 CFU/plate	10 CFU/plate	10 CFU/plate	425 CFU/plate	17 CFU/plate	18 CFU/plate	effective	10 CFU/plate	852 CFU/plate	6 CFU/plate	8 CFU/plate	12 CFU/plate	1005 CFU/plate	14 CFU/plate	11 CFU/plate	effective
